Experimental data from patent publication US20260193268A1, “TRICYCLIC PI3Ka INHIBITOR, PREPARATION METHOD THEREFOR, AND PHARMACEUTICAL USE THEREOF” (WIGEN BIOMEDICINE TECHNOLOGY (SHANGHAI) CO., LTD., priority 2022, published 2026).
Where two headings read alike, the source gives them in different places.

What was measured:
[1] = test system: MCF-7 cells (with PI3Kα E545K mutation); assay: In vitro inhibition of MCF-7 cell proliferation (CellTiter-Lumi); type: cell-based; conditions: Homo sapiens, MCF7, 144 h
How it was run: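 MCF-7 (PI3Kα E545K) seeded at 2000 cells/well; serially diluted compounds added next day and exposed for 144 h. Cellular ATP read by CellTiter-Lumi luminescence; IC50 for growth inhibition calculated.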

[2] = test system: HCC1954 cells (with PI3Kα H1047R mutation); assay: In vitro inhibition of HCC1954 cell proliferation (CellTiter-Lumi); type: cell-based; conditions: Homo sapiens, HCC1954, 144 h, HCC1954 cells, 144 h, CellTiter-Lumi
Procedure: Assay for In Vitro Inhibition of HCC1954 Cell Proliferation by Compounds of the Present Disclosure
The growth of the cells was evaluated, and the IC50 for the inhibition of cell growth by the compounds was calculated.

[3] = class symbols, read-out: Inhibitory activity against MCF-7 cells (IC50), class symbols
[4] = class symbols, read-out: Inhibitory activity against HCC1954 cells (IC50), class symbols
[5] = numeric values, read-out: Inhibitory activity against MCF-7 cells (IC50)
[6] = numeric values, read-out: Inhibitory activity against HCC1954 cells (IC50)

| Structure (SMILES) | IC50 [1, 3] [nM] | IC50 [2, 4] [nM] | IC50 [1, 5] [nM] | IC50 [2, 6] [nM] |
| --- | --- | --- | --- | --- |
| CC(C)(O)C=C(C#N)C(=O)Nc1ccc(N2CC(N3CCN(c4ccc5c(c4)-c4nc(N6C(=O)OC[C@H]6C(F)F)cn4CCO5)CC3)C2)nc1 [Compound 248] | < 50 | < 50 |  |  |
| C=CC(=O)N1CC[C@H](CN2CC3(CCN(c4ccc5c(c4)-c4nc(N6C(=O)OC[C@H]6C(F)F)cn4CCO5)CC3)C2)C1 [Compound 22] |  |  | 143 | > 1000 |
| C=CC(=O)Nc1ccc(N2CC(N3CCN(c4ccc5c(c4)-c4nc(-c6nc(C)nn6C(C)C)cn4CCO5)CC3)C2)cc1 [Compound 111] |  |  | 0.1 | 2.5 |
| C=CC(=O)N1CC(CN2CCC(N3CCN(c4ccc5c(c4)-c4nc(N6C(=O)OC[C@H]6C(F)F)cn4CCO5)CC3)CC2)C1 [Compound 64] |  |  | 33 | 314 |
| C=CC(=O)N1CC(N2CCC(CN3CC=C(c4ccc5c(c4)-c4nc(N6C(=O)OC[C@H]6C(F)F)cn4CCO5)CC3)CC2)C1 [Compound 88] |  |  | 32 | 212 |
| C=CC(=O)N1CCc2sc(N3CC(N4CCN(c5ccc6c(c5)-c5nc(N7C(=O)OC[C@H]7C(F)F)cn5CCO6)CC4)C3)nc2C1 [Compound 155] |  |  | 5.1 | 44 |
| C=CC(=O)N1CC[C@@H](CN2CC(CN3CCN(c4ccc5c(c4)-c4nc(N6C(=O)OC[C@H]6C(F)F)cn4CCO5)CC3)C2)C1 [Compound 37] |  |  | 75 | 750 |
| C=CC(=O)Nc1ccc(N2CC(N3CCN(c4ccc5c(c4)-c4nc(N6C(=O)OC[C@H]6C(F)F)cn4CCO5)CC3)C2)cc1C(F)(F)F [Compound 142] |  |  | 0.5 | 8.3 |
| CNC/C=C/C(=O)Nc1ccc(N2CC(N3CCN(c4ccc5c(c4)-c4nc(N6C(=O)OC[C@H]6C(F)F)cn4CCO5)CC3)C2)cc1 [Compound 186] |  |  | 4.3 | 32 |
| C=CC(=O)Nc1cc(N2CC(N3CCN(c4ccc5c(c4)-c4nc(N6C(=O)OC[C@H]6C(F)F)cn4CCO5)CC3)C2)n(C)n1 [Compound 135] |  |  | 1.5 | 16 |
| C=CC(=O)N1CCN(CCCCN2CCN(c3ccc4c(c3)-c3nc(N5C(=O)OC[C@H]5C(F)F)cn3CCO4)CC2)CC1 [Compound 26] |  |  | 83 | 248 |
| CC=C(C#N)C(=O)Nc1ccc(N2CC(N3CCN(c4ccc5c(c4)-c4nc(N6C(=O)OC[C@H]6C(F)F)cn4CCO5)CC3)C2)c(F)c1 [Compound 236] | < 50 | < 50 |  |  |
| N#CC(=CC1(N)CC1)C(=O)Nc1cnc(N2CC(N3CCN(c4ccc5c(c4)-c4nc(N6C(=O)OC[C@H]6C(F)F)cn4CCO5)CC3)C2)nc1 [Compound 271] | < 50 | < 50 |  |  |
| N#CC(=CC1CCCN1)C(=O)Nc1cnc(N2CC(N3CCN(c4ccc5c(c4)-c4nc(N6C(=O)OC[C@H]6C(F)F)cn4CCO5)CC3)C2)nc1 (stereo partly drawn) [Compound 270] | < 50 | < 50 |  |  |
| C=CC(=O)Nc1ccc(N2CCC(/C=C/c3ccc4c(c3)-c3nc(N5C(=O)OC[C@H]5C(F)F)cn3CCO4)CC2)cc1 [Compound 209] | < 50 | 50 to 100 |  |  |
| C=CC(=O)N1CC(N2CCC(c3ccc(-c4ccc5c(c4)-c4nc(N6C(=O)OC[C@H]6C(F)F)cn4CCO5)cc3)CC2)C1 [Compound 197] | < 50 | 100 to 1000 |  |  |
| C=C(F)C(=O)Nc1ccc(N2CC(N3CCN(c4ccc5c(c4)-c4nc(N6C(=O)OC[C@H]6C(F)F)cn4CCO5)CC3)C2)cc1 [Compound 99] |  |  | 11 | 53 |
| C=CC(=O)N1CCC(CN2CCC(N3CCN(c4ccc5c(c4)-c4nc(N6C(=O)OC[C@H]6C(F)F)cn4CCO5)CC3)CC2)CC1 [Compound 9] |  |  | 75 | > 1000 |
| CN(C)CC#CC(=O)Nc1ccc(N2CC(N3CCN(c4ccc5c(c4)-c4nc(N6C(=O)OC[C@H]6C(F)F)cn4CCO5)CC3)C2)cc1 [Compound 153] |  |  | 0.8 | 10 |
| CC(C)=CC(=O)CCC(=O)N1CCC(C#Cc2ccc3c(c2)-c2nc(N4C(=O)OC[C@H]4C(F)F)cn2CCO3)CC1 [Compound 191] | < 50 | 50 to 100 |  |  |
| C=CC(=O)Nc1ccc(N2CC(N3CCN(c4ccc5c(c4)-c4nc(N6C(=O)OC[C@H]6C(F)F)cn4CCO5)CC3)C2)c(C)n1 [Compound 151] |  |  | 0.3 | 5.6 |
| COCCNC(C)(C)C=C(C#N)C(=O)Nc1cnc(N2CC(N3CCN(c4ccc5c(c4)-c4nc(N6C(=O)OC[C@H]6C(F)F)cn4CCO5)CC3)C2)nc1 [Compound 268] | < 50 | < 50 |  |  |
| C=CC(=O)Nc1ccc(N2CCN(CC#Cc3ccc4c(c3)-c3nc(N5C(=O)OC[C@H]5C(F)F)cn3CCO4)CC2)cc1 [Compound 182] | 50 to 100 | 50 to 100 |  |  |
| CC(C)C=C(C#N)C(=O)Nc1ccc(N2CC(N3CCN(c4ccc5c(c4)-c4nc(N6C(=O)OC[C@H]6C(F)F)cn4CCO5)CC3)C2)c(F)c1 [Compound 226] | < 50 | < 50 |  |  |
| C=CC(=O)N1CC(CN2CC(N3CCN(c4ccc5c(c4)-c4nc(N6C(=O)OC[C@H]6C(F)F)cn4CCO5)CC3)C2)C1 [Compound 91] |  |  | 11 | 154 |
| C=CC(=O)Nc1ccc(N2CC3(CCN(c4ccc5c(c4)-c4nc(N6C(=O)OC[C@H]6C(F)F)cn4CCO5)C3)C2)cc1 [Compound 93] |  |  | 76 | 551 |
| N#C/C(=C\CN)C(=O)Nc1ccc(N2CC(N3CCN(c4ccc5c(c4)-c4nc(N6C(=O)OC[C@H]6C(F)F)cn4CCO5)CC3)C2)cc1 [Compound 184] | < 50 | < 50 |  |  |
| C=CC(=O)Nc1ccc(N2CCC(C/C=C/c3ccc4c(c3)-c3nc(N5C(=O)OCC5C(F)F)cn3CCO4)CC2)cc1 (stereo not drawn) [Compound 210] | < 50 | 50 to 100 |  |  |

The next lines start with the values.

| IC50 [1, 3] [nM] | IC50 [2, 4] [nM] | IC50 [1, 5] [nM] | IC50 [2, 6] [nM] | Structure (SMILES) |
| --- | --- | --- | --- | --- |
| < 50 | < 50 |  |  | CC(=O)NC(C)(C)C=C(C#N)C(=O)Nc1ccc(N2CC(N3CCN(c4ccc5c(c4)-c4nc(N6C(=O)OC[C@H]6C(F)F)cn4CCO5)CC3)C2)c(F)c1 [Compound 347] |
| < 50 | < 50 |  |  | CC(=O)NC(C)(C)C=C(C#N)C(=O)Nc1ccc(N2CC(N3CCN(c4ccc5c(c4)-c4nc(N6C(=O)OC[C@H]6C(F)F)cn4CCO5)CC3)C2)cc1Cl [Compound 366] |
| < 50 | < 50 |  |  | CC(C)(C=C(C#N)C(=O)Nc1ccc(N2CC(N3CCN(c4ccc5c(c4)-c4nc(N6C(=O)OC[C@H]6C(F)F)cn4CCO5)CC3)C2)cc1)NCOP(=O)(OCOC(=O)C(C)(C)C)OCOC(=O)C(C)(C)C [Compound 333] |
| < 50 | < 50 |  |  | Cc1nc(-c2cn3c(n2)-c2cc(N4CCN(C5CN(c6ccc(NC(=O)C(C#N)=CC(C)(C)NC(=O)OC(C)(C)C)cc6)C5)CC4)ccc2OCC3)n(C(C)C)n1 [Compound 338] |
| < 50 | < 50 |  |  | COCCNC(C)(C)C=C(C#N)C(=O)Nc1ncc(N2CC(N3CCN(c4ccc5c(c4)-c4nc(N6C(=O)OC[C@H]6C(F)F)cn4CCO5)CC3)C2)cn1 [Compound 302] |
| < 50 | < 50 |  |  | Cc1nc(-c2cn3c(n2)-c2cc(N4CCN(C5CN(c6ccc(NC(=O)C(C#N)=CC(C)(C)C)cn6)C5)CC4)ccc2OCC3)n(C(C)C)n1 [Compound 368] |
| < 50 | < 50 |  |  | CN1CCN(C(C)(C)C=C(C#N)C(=O)Nc2ccc(N3CC(N4CCN(c5ccc6c(c5)-c5nc(N7C(=O)OC[C@H]7C(F)F)cn5CCO6)CC4)C3)cc2)CC1=O [Compound 308] |
| < 50 | < 50 |  |  | CC(=O)NC(C)(C)C=C(C#N)C(=O)Nc1ccc(N2CC(N3CCN(c4ccc5c(c4)-c4nc(N6C(=O)OC[C@H]6C(F)F)cn4CCO5)CC3)C2)cc1 [Compound 325] |
| < 50 | < 50 |  |  | CN(C)C/C=C/C(=O)Nc1ccc(N2CC(N3CCN(c4ccc5c(c4)-c4nc(N6C(=O)OC[C@H]6C(F)F)cn4CCO5)CC3)C2)nn1 [Compound 287] |
| < 50 | < 50 |  |  | Cc1c(N2C(=O)OC[C@H]2C(F)F)nc2n1CCOc1ccc(N3CCN(C4CN(c5ccc(NC(=O)C(C#N)=CC(C)(C)C)cc5)C4)CC3)cc1-2 [Compound 323] |
| < 50 | < 50 |  |  | N#CC(=CC1(N)CCC1)C(=O)Nc1ccc(N2CC(N3CCN(c4ccc5c(c4)-c4nc(N6C(=O)OC[C@H]6C(F)F)cn4CCO5)CC3)C2)cc1 [Compound 391] |
| < 50 | < 50 |  |  | CC(C)(C=C(C#N)C(=O)Nc1ccc(N2CC(N3CCN(c4ccc5c(c4)-c4nc(N6C(=O)OC[C@H]6C(F)F)cn4CCO5)CC3)C2)cc1Cl)NC(=O)OC(C)(C)C [Compound 358] |
| < 50 | < 50 |  |  | CNC(C)(C)C=C(C#N)C(=O)Nc1ccc(N2CC(N3CCN(c4ccc5c(c4)-c4nc(N6C(=O)OC[C@H]6C(F)F)cn4CCO5)CC3)C2)c(Cl)c1 [Compound 350] |
| < 50 | < 50 |  |  | CN(C)C/C=C/C(=O)Nc1ccc(N2CC(N3CCN(c4ccc5c(c4)-c4nc(N6C(=O)OC[C@H]6C(F)F)cn4CCO5)CC3)C2)c(Cl)c1 [Compound 356] |
| < 50 | < 50 |  |  | CC(C)(C=C(C#N)C(=O)Nc1ccc(N2CC(N3CCN(c4ccc5c(c4)-c4nc(N6C(=O)OC[C@H]6C(F)F)cn4CCO5)CC3)C2)cc1)N1CCN(C2COC2)CC1 [Compound 304] |
| < 50 | < 50 |  |  | CC(C)(N)C=C(C#N)C(=O)Nc1ccc(N2CC(N3CCN(c4ccc5c(c4)-c4nc(N6C(=O)OC[C@H]6C(F)F)cn4CCO5)CC3)C2)nn1 [Compound 297] |
| < 50 | < 50 |  |  | CC(C)(N)C=C(C#N)C(=O)Nc1ccc(N2CC(N3CCN(c4ccc5c(c4)-c4nc(N6C(=O)OC[C@H]6C(F)F)cn4CCO5)CC3)C2)cn1 [Compound 291] |
